The target of the experiment is Transient receptor potential cation channel subfamily V member 1 (Rattus norvegicus, UniProt O35433).
Chain of Transient receptor potential cation channel subfamily V member 1 (O35433 whole entry): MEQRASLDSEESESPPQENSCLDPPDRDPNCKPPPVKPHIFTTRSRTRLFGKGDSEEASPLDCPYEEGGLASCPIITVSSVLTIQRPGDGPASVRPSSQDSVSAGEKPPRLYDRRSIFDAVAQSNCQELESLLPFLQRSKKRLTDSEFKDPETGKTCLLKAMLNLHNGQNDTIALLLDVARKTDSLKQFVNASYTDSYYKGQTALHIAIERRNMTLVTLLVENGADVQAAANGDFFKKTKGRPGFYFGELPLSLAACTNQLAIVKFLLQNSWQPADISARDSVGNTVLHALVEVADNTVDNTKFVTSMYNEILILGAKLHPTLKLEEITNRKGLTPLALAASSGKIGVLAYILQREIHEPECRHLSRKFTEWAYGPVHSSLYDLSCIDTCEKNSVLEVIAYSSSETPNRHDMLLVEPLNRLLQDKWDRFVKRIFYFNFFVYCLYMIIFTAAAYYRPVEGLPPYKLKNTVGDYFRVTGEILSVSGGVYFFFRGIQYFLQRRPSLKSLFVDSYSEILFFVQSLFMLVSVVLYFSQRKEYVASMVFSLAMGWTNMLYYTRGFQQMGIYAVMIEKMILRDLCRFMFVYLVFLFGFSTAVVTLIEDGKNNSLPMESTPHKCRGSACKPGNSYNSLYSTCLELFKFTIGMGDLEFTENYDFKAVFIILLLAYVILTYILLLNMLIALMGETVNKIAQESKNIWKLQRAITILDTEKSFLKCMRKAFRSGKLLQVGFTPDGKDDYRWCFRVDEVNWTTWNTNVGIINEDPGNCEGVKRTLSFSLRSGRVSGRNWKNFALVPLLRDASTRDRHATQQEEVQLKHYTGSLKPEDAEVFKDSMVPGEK

As to `CC(C)(C)c1ccc(CNC(=S)NCc2ccc(NS(C)(=O)=O)c(F)c2)cc1` [JYL1421], the Ki (as a rule, a dissociation constant, usually derived from enzyme kinetics or from competition with a known ligand) turned out to be 9.2 nM.
